Laboratory results: US12605361B2, “Carboxylated psilocybin derivatives and methods of using” (Enveric Biosciences Canada Inc., priority 2020, dated 2026)

Legend:
5-HT1A receptor = target: T1, 5-HT1A receptor (Homo sapiens, UniProt P08908); test: cAMP-Glo assay of 5-HT1A activation in +5-HT1A cells (CHO-K1/5-HT1A/Gα15); format: cell-based; settings: for 5-HT1A activity from luminescence (cAMP) trend: +5HT1A cell culture, FIG. 14B, 14C; for 5-HT1A binding activity from % cAMP levels trend: +5HT1A cell cultures
T1 construct: host or cells: CHO-K1 stably expressing 5-HT1A and Gα15
T1 sequence (P08908 1-422): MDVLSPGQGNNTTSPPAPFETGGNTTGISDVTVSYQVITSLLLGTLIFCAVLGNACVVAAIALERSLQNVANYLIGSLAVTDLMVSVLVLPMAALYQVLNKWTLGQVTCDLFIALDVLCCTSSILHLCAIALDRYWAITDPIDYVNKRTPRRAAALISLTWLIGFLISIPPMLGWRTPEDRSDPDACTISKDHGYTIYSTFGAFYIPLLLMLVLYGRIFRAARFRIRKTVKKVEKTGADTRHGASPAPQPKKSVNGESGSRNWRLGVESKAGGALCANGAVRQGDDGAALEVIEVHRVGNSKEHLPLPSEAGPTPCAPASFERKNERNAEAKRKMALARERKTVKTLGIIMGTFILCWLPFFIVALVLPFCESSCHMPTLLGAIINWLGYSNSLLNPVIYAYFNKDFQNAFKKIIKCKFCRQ
Excerpt: (§1) CHO-K1/Gα15 (GenScript, M00257) (−5-HT1A) and CHO-K1/5-HT1A/Gα15 (GenScript, M00330) (+5-HT1A) cells lines were used. Briefly, CHO-K1/Gα15 is a control cell line that constitutively expresses Gα15 which is a promiscuous Gq protein. This control cell line lacks any transgene encoding 5-HT1A receptors, but still responds to forskolin; thus, cAMP response to forskolin should be the same regardless of whether or not 5-HT1A agonists are present. Conversely, CHO-K1/5-HT1A/Gα15 cells stably express 5-HT1A receptor in the CHO-K1 host background. […] In +5-HT1A cells, Gα15 may be recruited in place of Gαi/o, which could theoretically dampen cAMP response (Rojas and Fiedler 2016, Front Cell Neurosci 10: 272). […] In contrast, tryptophan is not known to activate 5-HT1A receptors, and was thus used as a negative control. Cells were maintained in complete growth media as recommended by supplier (GenScript) which is constituted as follows: Ham's F12 Nutrient mix (HAM's F12, GIBCO #11765-047) with 10% fetal bovine serum (FBS) (Thermo Scientific #12483020), 200 μg/ml zeocin (Thermo Scientific #R25005) and/or 100 μg/ml hygromycin (Thermo Scientific #10687010). The cells were cultured in a humidified incubator with 37° C. and 5% CO2. Cells maintenance was carried out as recommended by the cell supplier. Briefly, vials with cells were removed from the liquid nitrogen and thawed quickly in 37° C. water bath. Just before the cells were completely thawed the vial's outside was decontaminated by 70% ethanol spray. The cell suspension was then retrieved from the vial and added to warm (37° C.) complete growth media, and centrifuged at 1,000 rpm for 5 minutes. The supernatant was discarded, and the cell pellet was then resuspended in another 10 ml of complete growth media, and added to the 10 cm cell culture dish (Greiner Bio-One #664160). The media was changed every third day until the cells were about 90% confluent. The ˜90% confluent cells were then split 10:1 for maintenance or used for experiment.
The change in intracellular cAMP levels due to the treatment of novel molecules was measured using cAMP-Glo Assay kit (Promega #V1501). Briefly, +5-HT1A cells were seeded on 1-6 columns and base −5-HT1A cells were seeded on columns 7-12 of the white walled clear bottom 96-well plate (Corning, #3903). Both cells were seeded at the density of 30,000 cells/well in 100 μl complete growth media and cultured 24 hrs in humidified incubator at 37° C. and 5% CO2. On the experiment day, the media of cells was replaced with serum/antibiotic free culture media. Then the cells were treated for 20 minutes with test molecules dissolved in induction medium ([…], 500 μM IBMX (isobutyl-1-methylxanthine, Sigma-Aldrich, Cat. #17018) and 100 μM (RO 20-1724, Sigma-Aldrich, Cat. #B8279)). Forskolin induced cAMP formation whereas IBMX and RO 20-1724 inhibited the degradation of cAMP. PKA was added to the lysate, mixed, and subsequently the substrate of the PKA was added. PKA was activated by cAMP, and the amount of ATP consumed due to PKA phosphorylation directly corresponded to cAMP levels in the lysate. Reduced ATP caused reduced conversion of luciferin to oxyluciferin, conferring diminished luminescence as the result of 5-HT1A activation. […] Note that compound (VI) is shown simply as (VI) along the x-axis. For FIGS A-C, error bars represent results of three experiments (n=3).

5-HT2A receptor = target: T2, 5-HT2A receptor (Homo sapiens, UniProt P28223); test: [3H]ketanserin competition binding assay (SPA) on membranes containing 5-HT2A; settings: fixed (1 nM) [3H]ketanserin; FIG. 13B, 13C
T2 construct: purchased PerkinElmer ES-313-M400UA
T2 sequence (P28223 whole entry): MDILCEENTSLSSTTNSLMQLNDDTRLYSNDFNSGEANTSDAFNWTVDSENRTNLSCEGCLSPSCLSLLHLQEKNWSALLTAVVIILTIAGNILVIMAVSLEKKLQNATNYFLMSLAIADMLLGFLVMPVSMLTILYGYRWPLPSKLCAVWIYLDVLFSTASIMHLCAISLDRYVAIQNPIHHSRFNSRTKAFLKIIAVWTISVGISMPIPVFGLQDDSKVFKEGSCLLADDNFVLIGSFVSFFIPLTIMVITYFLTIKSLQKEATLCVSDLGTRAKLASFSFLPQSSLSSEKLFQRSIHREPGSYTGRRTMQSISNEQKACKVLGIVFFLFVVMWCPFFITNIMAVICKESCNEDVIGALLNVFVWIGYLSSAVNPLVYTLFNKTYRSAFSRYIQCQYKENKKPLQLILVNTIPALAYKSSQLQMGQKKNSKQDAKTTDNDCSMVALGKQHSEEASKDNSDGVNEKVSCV
Excerpt: Evaluation of drug binding is an essential step to characterization of all drug-target interactions (Fang 2012, Exp Opin Drug Discov 7:969). The binding affinity of a drug to a target is traditionally viewed as an acceptable surrogate of its in vivo efficacy (Núñez et al., 2012, Drug Disc Today 17: 10). Competition assays, also called displacement or modulation binding assays, are a common approach to measure activity of a ligand at a target receptor (Flanagan 2016, Methods Cell Biol 132: 191). In these assays, standard radioligands acting either as agonists or antagonists are ascribed to specific receptors. […] After incubation, the samples were read on a MicroBeta 2 Microplate Counter (Perkin Elmer). […] Equilibrium binding constants for ketanserin (Kd) were determined from saturation binding curves using the ‘one-site saturation binding analysis’ method of GraphPad PRISM software (Version 9.2.0). […] Ki values were calculated from the competition displacement data using the competitive binding analysis from GraphPad PRISM software. […] Specific binding in counts per minute (cpm) was calculated by subtracting non-specific binding from total binding. Specific binding (pmol/mg) was calculated from μmol of [^3H]ketanserin bound per mg of protein in the assay. The Kd was calculated by fitting the data with the one-site binding model of PRISM software (version 9.2.0).

[1] = test system: CHO-K1/Gα15 (−5-HT1A) cells; test: cAMP-Glo assay in −5-HT1A control cells (CHO-K1/Gα15); format: cell-based; settings: −5HT1A cell cultures (control without 5-HT1A receptor); FIG. 14D-14F
Excerpt: as §1, with “The cell suspension was then retrieved from the vial and added to warm (37° C.) complete growth media, and centrifuged at 1,000 rpm for 5 minutes. The supernatant was discarded, and the cell pellet was then resuspended in another 10 ml of complete growth media, and added to the 10 cm cell culture dish (Greiner Bio-One #664160). The media was changed every third day until the cells were about 90% confluent. The ˜90% confluent cells were then split 10:1 for maintenance or used for experiment.” left out
As 5-HT1A activation inhibits cAMP formation, the agonist activity of test molecules on 5-HT1A was measured via the reduction in the levels of cAMP produced due to application of 4 μM forskolin. The change in intracellular cAMP levels due to the treatment of novel molecules was measured using cAMP-Glo Assay kit (Promega #V1501). […] Reduced ATP caused reduced conversion of luciferin to oxyluciferin, conferring diminished luminescence as the result of 5-HT1A activation. […]

[2] = fixed (4 μM) forskolin, decreasing dosages of ligand
[3] = fixed (4 μM) forskolin, decreasing dosages of ligand, FIG. 14D, 14E

Structure (SMILES)	5-HT1A activity from luminescence (cAMP) trend (5-HT1A receptor; [2])	competition binding curve versus [3H]ketanserin (5-HT2A receptor)	trend of increasing % cAMP levels with decreasing compound [1]	5-HT1A binding activity from % cAMP levels trend (5-HT1A receptor; [3])	also measured
N[C@@H](Cc1c[nH]c2ccccc12)C(=O)O [tryptophan]	lack of 5-HT1A activity	no binding	–	–	–
NCCc1c[nH]c2c(C(=O)O)ccc(O)c12 [compound (VII)]	–	–	not observed	–	5-HT1A binding activity from % cAMP levels trend (5-HT1A receptor; decreasing dosages of compound, FIG. 14F): 5-HT1A binding activity
NCCc1c[nH]c2ccc(O)cc12 [serotonin]	–	–	not observed	5-HT1A binding activity	–
CN(C)CCc1c[nH]c2cccc(O)c12 [psilocin]	–	binding	–	–	–
CN(C)CCc1c[nH]c2ccccc12 [DMT]	5-HT1A activity	–	–	–	–
COc1ccc(C(=O)O)c2[nH]cc(CCN)c12 [compound (VI)]	–	–	not observed	mild 5-HT1A binding activity	–
